In PubChem BioAssay (NCI):
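A five-concentration, 48-hour dose response in 96-well plates underlies each endpoint, interpolated linearly between surrounding concentrations. The concentration for 50% growth inhibition is given as GI50. At the TGI there is no net growth.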

Key:
Test in all cases: inhibition of tumour cell growth, NCI panel, 48 h
[1] = tested on: BT-549 breast
[2] = tested on: DU-145 prostate
[3] = tested on: U251 CNS
[4] = tested on: 786-0 renal
[5] = tested on: EKVX NSCLC
[6] = tested on: K-562 leukemia
[7] = tested on: HS 578T breast
[8] = tested on: HCT-116 colon
[9] = tested on: SR leukemia
[10] = tested on: SK-MEL-28 melanoma
[11] = tested on: SN12C renal
[12] = tested on: NCI-H460 lung
[13] = tested on: HOP-62 NSCLC
[14] = tested on: HCT-15 colon
[15] = tested on: SF-295 CNS
[16] = tested on: SK-MEL-2 melanoma
[17] = tested on: SNB-75 CNS
[18] = tested on: SNB-19 CNS
[19] = tested on: NCI-H226 lung
[20] = tested on: MALME-3M melanoma
[21] = tested on: NCI-H23 lung
[22] = tested on: OVCAR-4 ovarian
[23] = tested on: IGROV1 ovarian
[24] = tested on: OVCAR-5 ovarian
[25] = tested on: SF-539 CNS
[26] = tested on: NCI-H522 lung
[27] = tested on: HCC-2998 colon
[28] = tested on: LOX IMVI melanoma
[29] = tested on: MDA-MB-231 breast
[30] = tested on: RXF 393 renal
[31] = tested on: A549 NSCLC
[32] = tested on: OVCAR-8 ovarian
[33] = tested on: UO-31 renal
[34] = tested on: A498 renal
[35] = tested on: HOP-92 NSCLC
[36] = tested on: MDA-MB-468 breast
[37] = tested on: UACC-257 melanoma
[38] = tested on: PC-3 prostate
[39] = tested on: CCRF-CEM leukemia
[40] = tested on: HT29 colon
[41] = tested on: CAKI-1 renal
[42] = tested on: MOLT-4 leukemia
[43] = tested on: MCF7 breast
[44] = tested on: MDA-MB-435
[45] = tested on: HL-60(TB) leukemia
[46] = tested on: T-47D breast
[47] = tested on: SW-620 colon
[48] = tested on: ACHN renal
[49] = tested on: SF-268 CNS
[50] = tested on: TK-10 renal
[51] = tested on: SK-MEL-5 melanoma
[52] = tested on: KM12 colon
[53] = tested on: SK-OV-3 ovarian
[54] = tested on: COLO 205 colon
[55] = tested on: UACC-62 melanoma
[56] = tested on: OVCAR-3 ovarian
[57] = tested on: RPMI-8226 leukemia
[58] = tested on: M14 melanoma

CC1=C(COCCOC(=O)c2ccc(S(=O)(=O)F)cc2)C2=C(C)C3(CC3)[C@@](C)(O)C(=O)C2=C1
GI50 [1]: 14.9 µM | TGI [1]: 32.2 µM | GI50 [2]: 24.1 µM | TGI [2]: 57.2 µM | GI50 [3]: 18.1 µM | TGI [3]: 37.3 µM | GI50 [4]: 19 µM | TGI [4]: 42.3 µM | GI50 [5]: 17.5 µM | TGI [5]: 33.8 µM | GI50 [6]: 25.8 µM | TGI [6]: 58.5 µM | GI50 [7]: 25.4 µM | TGI [7]: 99.6 µM | GI50 [8]: 16.7 µM | TGI [8]: 32.4 µM | GI50 [9]: 22.5 µM | TGI [9]: 56.2 µM | GI50 [10]: 16.2 µM | TGI [10]: 30.1 µM | GI50 [11]: 16.6 µM | TGI [11]: 30.4 µM | GI50 [12]: 21.6 µM | TGI [12]: 45.8 µM | GI50 [13]: 21.6 µM | TGI [13]: 58.2 µM | GI50 [14]: 20.8 µM | TGI [14]: 43.1 µM | GI50 [15]: 22.1 µM | TGI [15]: 51.6 µM | GI50 [16]: 17.9 µM | TGI [16]: 35.3 µM | GI50 [17]: 16.3 µM | TGI [17]: 49.7 µM | GI50 [18]: 17 µM | TGI [18]: 32.5 µM | GI50 [19]: 27.9 µM | TGI [19]: 85.7 µM | GI50 [20]: 16 µM | TGI [20]: 30.8 µM | GI50 [21]: 19.4 µM | TGI [21]: 37.5 µM | GI50 [22]: 20.1 µM | TGI [22]: 48.4 µM | GI50 [23]: 17 µM | TGI [23]: 32.4 µM | GI50 [24]: 18.1 µM | TGI [24]: 36.6 µM | GI50 [25]: 17.7 µM | TGI [25]: 33.9 µM | GI50 [26]: 16 µM | TGI [26]: 30.9 µM | GI50 [27]: 18.5 µM | TGI [27]: 33.6 µM | GI50 [28]: 17.8 µM | TGI [28]: 34.6 µM | GI50 [29]: 17.7 µM | TGI [29]: 34.2 µM | GI50 [30]: 17.5 µM | TGI [30]: 34.8 µM | GI50 [31]: 25.9 µM | TGI [31]: 80.8 µM | GI50 [32]: 18.9 µM | TGI [32]: 40.1 µM | GI50 [33]: 17 µM | TGI [33]: 44.8 µM | GI50 [34]: 18.6 µM | TGI [34]: 43.7 µM | GI50 [35]: 16.6 µM | TGI [35]: 42.2 µM | GI50 [36]: 18.7 µM | TGI [36]: 40.1 µM | GI50 [37]: 17.7 µM | TGI [37]: 38.3 µM | GI50 [38]: 19.8 µM | TGI [38]: 51.3 µM | GI50 [39]: 21.4 µM | TGI [39]: 52.3 µM | GI50 [40]: 18.4 µM | TGI [40]: 35.9 µM | GI50 [41]: 16 µM | TGI [41]: 32.5 µM | GI50 [42]: 26.3 µM | TGI [42]: 72.3 µM | GI50 [43]: 27 µM | TGI [43]: 91.2 µM | GI50 [44]: 22.2 µM | TGI [44]: 52.2 µM | GI50 [45]: 24.3 µM | TGI [45]: 55.1 µM | GI50 [46]: 17.7 µM | TGI [46]: 40 µM | GI50 [47]: 17.5 µM | TGI [47]: 33.9 µM | GI50 [48]: 21.7 µM | TGI [48]: 49.9 µM | GI50 [49]: 26 µM | TGI [49]: 77.6 µM | GI50 [50]: 19.6 µM | TGI [50]: 45.3 µM | GI50 [51]: 20 µM | TGI [51]: 39.5 µM | GI50 [52]: 23.6 µM | TGI [52]: 53.8 µM | GI50 [53]: 18.6 µM | TGI [53]: 39.5 µM | GI50 [54]: 19.6 µM | TGI [54]: 37.2 µM | GI50 [55]: 16.2 µM | TGI [55]: 30.2 µM | GI50 [56]: 18.4 µM | TGI [56]: 34.7 µM | GI50 [57]: 26 µM | TGI [57]: 69.4 µM | GI50 [58]: 18.9 µM | TGI [58]: 36.9 µM

O=C(c1ccc(O)cc1)C1[C@H](c2ccccc2Br)[C@@H](c2ccccc2)NC12C(=O)Nc1ccc(Cl)cc12 (some centres not stated)
GI50 [1]: 2.19 µM | TGI [1]: 9.37 µM | GI50 [2]: 8.01 µM | TGI [2]: 16.5 µM | GI50 [3]: 3.46 µM | TGI [3]: 10.8 µM | GI50 [4]: 6.57 µM | TGI [4]: 13.7 µM | GI50 [5]: 6.65 µM | TGI [5]: 15.4 µM | GI50 [6]: 3.75 µM | TGI [6]: 17.9 µM | GI50 [7]: 6.2 µM | TGI [7]: 22.6 µM | GI50 [8]: 4.12 µM | TGI [8]: 11.4 µM | GI50 [9]: 2.01 µM | TGI [9]: 9.34 µM | GI50 [10]: 7.51 µM | TGI [10]: 14.7 µM | GI50 [11]: 1.7 µM | TGI [11]: 6.32 µM | GI50 [12]: 4.72 µM | TGI [12]: 12.7 µM | GI50 [13]: 7.08 µM | TGI [13]: 14.9 µM | GI50 [14]: 6.63 µM | TGI [14]: 16.1 µM | GI50 [15]: 4.98 µM | TGI [15]: 12.5 µM | GI50 [16]: 6.49 µM | TGI [16]: 13.8 µM | GI50 [17]: 1.44 µM | TGI [17]: 8.12 µM | GI50 [18]: 5.97 µM | TGI [18]: 12.6 µM | GI50 [19]: 1.57 µM | TGI [19]: 6.22 µM | GI50 [20]: 7.89 µM | TGI [20]: 15.3 µM | GI50 [21]: 6.65 µM | TGI [21]: 14.4 µM | GI50 [22]: 4.69 µM | TGI [22]: 13.7 µM | GI50 [23]: 2.3 µM | TGI [23]: 9.11 µM | GI50 [24]: 6.25 µM | TGI [24]: 13 µM | GI50 [25]: 6.11 µM | TGI [25]: 12.8 µM | GI50 [26]: 2.23 µM | TGI [26]: 8.45 µM | GI50 [27]: 2.42 µM | TGI [27]: 9.01 µM | GI50 [28]: 5.53 µM | TGI [28]: 13.1 µM | GI50 [29]: 4.68 µM | TGI [29]: 11.8 µM | GI50 [30]: 2.86 µM | TGI [30]: 10.5 µM | GI50 [31]: 3.43 µM | TGI [31]: 11.2 µM | GI50 [32]: 6.72 µM | TGI [32]: 14.6 µM | GI50 [33]: 3.26 µM | TGI [33]: 10.9 µM | GI50 [34]: 6.57 µM | TGI [34]: 13.9 µM | GI50 [35]: 3.03 µM | TGI [35]: 11.6 µM | GI50 [36]: 1.61 µM | TGI [36]: 6.96 µM | GI50 [37]: 6.51 µM | TGI [37]: 13.5 µM | GI50 [38]: 2.8 µM | TGI [38]: 11.3 µM | GI50 [39]: 3.49 µM | TGI [39]: 16.5 µM | GI50 [40]: 7.36 µM | TGI [40]: 17.9 µM | GI50 [41]: 2 µM | TGI [41]: 8.85 µM | GI50 [42]: 2.2 µM | TGI [42]: 11.4 µM | GI50 [43]: 3.17 µM | TGI [43]: 13.7 µM | GI50 [44]: 4.78 µM | TGI [44]: 12.9 µM | GI50 [45]: 5.86 µM | TGI [45]: 20.3 µM | GI50 [46]: 5.51 µM | TGI [46]: 14.9 µM | GI50 [47]: 6.73 µM | TGI [47]: 14.8 µM | GI50 [48]: 5.39 µM | TGI [48]: 11.8 µM | GI50 [49]: 3.99 µM | TGI [49]: 13.4 µM | GI50 [50]: 7.76 µM | TGI [50]: 16 µM | GI50 [51]: 8.68 µM | TGI [51]: 16.8 µM | GI50 [52]: 2.91 µM | TGI [52]: 11.1 µM | GI50 [53]: 7.69 µM | TGI [53]: 15.4 µM | GI50 [54]: 7.35 µM | TGI [54]: 15.7 µM | GI50 [55]: 5.71 µM | TGI [55]: 12.2 µM | GI50 [56]: 2.76 µM | TGI [56]: 9.34 µM | GI50 [57]: 3.29 µM | TGI [57]: 43.8 µM | GI50 [58]: 4.77 µM | TGI [58]: 12.4 µM
